Reference: patent US11284835B2, “Method for assessing pain caused by administration of drug solution, and method for selecting drug solution administration” (TERUMO KABUSHIKI KAISHA, priority 2016, dated 2022)

Assays:
[1] = tested on: human; details: cited from earlier work
[2] = tested on: rat; experiment: Electromyogram (EMG) of the myoelectric response caused by drug solution administration into the plantar subcutaneous of anesthetized rats; assay type: in vivo
Description: In the embodiment illustrated in FIG. 1, a subject (experimental animal) used for assessment of pain caused by administration of a drug solution is a rat 12. Conditions of the rat 12 that can be used are, for example, an age in range of 7 to 10 weeks old, a body weight in a range of 200 to 400 g, and a strain that is SD (other strains are also possible). An acclimation and quarantine period of the rat 12 is preferably five days or longer. An anesthesia mask 13 is attached to the rat 12, and inhalation anesthesia is performed.
In order to measure the pain caused by the administration of the drug solution, a myoelectric potential of the semitendinosus muscle 12b of the thigh of the rat 12 is recorded. At the time of recording the myoelectric potential, a needle-shaped measurement electrode 24 (for example, a bipolar hook electrode) is punctured under the semitendinosus muscle 12b to be placed, and a reference electrode 26 is pasted to a thoracic skin surface 12c. Potential signals from the measurement electrode 24 and the reference electrode 26 are amplified by a high-sensitivity bioelectric amplifier 28 and transmitted to a data collection device 30.
A rat 12 serving as a subject is prepared (a preparation step), and the rat 12 is subjected to inhalation anesthesia (an anesthesia step). Examples of an applicable inhalation anesthetic include isoflurane. […] Incidentally, it is preferable to heat the rat 12 with a warming mat to keep the body temperature constant during the anesthesia.
Next, the measurement electrode 24 is placed in the semitendinosus muscle 12b of the anesthetized rat 12 (a measurement electrode placement step). […] At this time, the thigh skin at a position where contraction has been recognized is incised by about 1 cm to expose the semitendinosus muscle 12b, and then, the measurement electrode 24 is inserted.
Thereafter, the anesthetic depth is kept constant. […]
Once such a myoelectric potential waveform is obtained, the measurement step is performed in order to assess (quantify) the pain caused by the drug solution administration. […]

SMILES	magnitude of pain (VAS) over time ([1]; 5% NaCl injected (FIG. 6A))	magnitude of pain (EMG intensity) ([2]; 10% NaCl, plurality of different administration rates (FIG. 9B))	pain (EMG intensity obtained from myoelectric response) ([2]; NaCl concentration 5% or more (FIG. 6B))	magnitude of pain (VAS) ([1]; plurality of different molar concentrations (FIG. 7A, created from source graph))	pain (EMG intensity obtained from myoelectric response) ([2]; plurality of different molar concentrations (FIG. 7B))
[Cl-].[Na+] [NaCl]	great pain	varies depending on a difference in the administration rate	significantly increases	–	–
N[C@@H](CCC(=O)O)C(=O)O [glutamic acid]	–	–	–	the pain increases as the molar concentration of glutamic acid increases	the pain increases as the molar concentration of glutamic acid increases
